In ChEMBL document CHEMBL5038669, “Development of the First Covalent Monopolar Spindle Kinase 1 (MPS1/TTK) Inhibitor” (J Med Chem, 2022):

Assays:
[1] = molecular target: T1, Dual specificity protein kinase TTK (Homo sapiens, UniProt P33981); experiment: Displacement of tracer K9 from NanoLuc-fused MPS1 (unknown origin) expressed in HEK293T cells measured after 2 hrs by NanoBRET assay; type: cell-based
T1 sequence (P33981 whole entry): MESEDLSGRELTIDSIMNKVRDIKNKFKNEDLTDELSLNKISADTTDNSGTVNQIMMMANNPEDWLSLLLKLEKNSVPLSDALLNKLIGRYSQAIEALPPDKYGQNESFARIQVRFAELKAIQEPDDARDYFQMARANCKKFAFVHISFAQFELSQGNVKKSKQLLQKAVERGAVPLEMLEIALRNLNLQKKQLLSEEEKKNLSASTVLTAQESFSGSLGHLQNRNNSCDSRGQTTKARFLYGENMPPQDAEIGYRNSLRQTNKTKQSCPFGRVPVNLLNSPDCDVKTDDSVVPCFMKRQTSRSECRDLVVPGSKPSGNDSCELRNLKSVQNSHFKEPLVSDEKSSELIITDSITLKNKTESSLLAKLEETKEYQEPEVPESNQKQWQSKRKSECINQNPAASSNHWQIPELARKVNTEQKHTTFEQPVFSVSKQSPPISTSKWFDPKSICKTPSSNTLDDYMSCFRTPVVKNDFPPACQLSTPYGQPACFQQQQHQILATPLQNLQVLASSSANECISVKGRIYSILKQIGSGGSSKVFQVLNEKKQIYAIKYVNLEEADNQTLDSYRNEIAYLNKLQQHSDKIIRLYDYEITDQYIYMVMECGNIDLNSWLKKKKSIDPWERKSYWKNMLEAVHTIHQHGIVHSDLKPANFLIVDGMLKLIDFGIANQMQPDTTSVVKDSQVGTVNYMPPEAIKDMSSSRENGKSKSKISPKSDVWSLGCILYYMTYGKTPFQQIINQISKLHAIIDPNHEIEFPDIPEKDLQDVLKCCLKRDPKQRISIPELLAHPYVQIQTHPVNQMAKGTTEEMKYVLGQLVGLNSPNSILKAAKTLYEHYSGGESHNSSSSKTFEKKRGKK

[2] = molecular target: T1, Dual specificity protein kinase TTK; experiment: Inhibition of recombinant human full length N-terminal GST-fused MPS1 (1 to 857 residues) using histone H3 as substrate by TR-FRET assay
[3] = molecular target: T2, Serine/threonine-protein kinase 17B (Homo sapiens) (UniProt O94768); conditions: dose 10.0 µM
T2 sequence (whole entry): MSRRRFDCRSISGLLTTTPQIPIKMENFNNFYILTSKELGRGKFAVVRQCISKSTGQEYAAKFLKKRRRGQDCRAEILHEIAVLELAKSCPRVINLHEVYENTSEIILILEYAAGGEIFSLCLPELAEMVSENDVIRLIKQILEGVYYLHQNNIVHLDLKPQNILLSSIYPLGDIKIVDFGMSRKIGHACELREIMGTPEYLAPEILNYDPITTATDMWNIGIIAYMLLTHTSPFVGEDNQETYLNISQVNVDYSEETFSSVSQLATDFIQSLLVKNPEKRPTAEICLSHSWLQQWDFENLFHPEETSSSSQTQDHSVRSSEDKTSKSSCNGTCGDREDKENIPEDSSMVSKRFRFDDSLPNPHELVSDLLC

IC50 [1]: 32.7 nM | IC50 [2]: 9.06 nM | ΔTm [3]: 17.4 °C
SMILES: CCC(=O)Nc1cc(N2CCN(C)CC2)ccc1Nc1ncc2c(n1)-n1ccc(C(=O)Nc3c(CC)cccc3CC)c1CC2
